This note sets out measurements from US8530648B2, “Diaza-spiro[5.5]undecanes” (Novartis AG, priority 2009, dated 2013).

One may read the Ki as a measure of affinity in units of concentration, obtained from inhibition or displacement. What is called Kd is a measure of binding affinity in units of concentration. Low values mean a tighter complex, high ones a looser complex. One may read the inhibition as the share of the control response that was lost under treatment.

Test [1] addresses T1, hOx1R (Homo sapiens (Human), UniProt O43613). Put plainly: Calcium accumulation in cells (FLIPR), hOx1R. The following applies: for Ki: inhibition of orexin A induced calcium accumulation, Cheng and Prusoff correction. The test is classed as cell-based. The essentials: (§1)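 Cells expressing human orexin 1 or 2 receptor, serum-deprived overnight, loaded with Fluo-4-AM (2 μM) plus 0.1 mM probenecid, pH 7.4 HEPES buffer with 1% BSA.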

Test [2] deals with T2, hOx2R (Homo sapiens (Human), UniProt O43614). Put plainly: Calcium accumulation in cells (FLIPR), hOx2R. The test is classed as cell-based. Conditions: inhibition of orexin A induced calcium accumulation, Cheng and Prusoff correction. Put shortly: as §1
In test [3] the target is T1, hOx1R. Put plainly: Radioligand binding assay, [125I]orexin A, hOx1R. The following applies: radioligand [125I]orexin A, competition. The method, then:
(§2) For crude cell membrane preparations, cells (CHO, Chinese hamster ovary or HEK, human embryonic kidney) expressing human orexin 1 or human orexin 2 receptors, were washed with HEPES (10 mM, pH 7.5), scraped off the culture plates with the same buffer, and centrifuged at 4° C. for 5 min at 2500×g. The cell pellet was either stored at −80° C. or used directly. Before the experiments, cell membranes were re-suspended in binding assay buffer (10 mM HEPES, 0.5% (w/v) bovine serum albumin, pH 7.5) by homogenisation with a Polytron homogeniser at 50 Hz for 20 s. Cell membranes were also used as made available by commercial providers.
(§3) In initial saturation experiments (to calculate Bmax), cell homogenates (150 μl) were incubated with 25-300 pM of the radioligand ([^125I]orexin A, 50 μl), 8 concentrations in triplicates in the presence or absence Orexin A (1 μM, 50 μl) to define non specific binding. Bound radioactivity was measured, and data were analysed with the program XLFIT or Graphpad Prism. Protein concentration was determined according to the Bradford/BioRad Protein Assay Kit.
(§4) In competition experiments, cell homogenates (150 μl) were incubated in assay buffer (10 mM HEPES, pH 7.5, 0.5% (w/v) bovine serum albumin, 5 mM MgCl2, 1 mM CaCl2, and tween 0.05%) for 1 h at room temperature with about 100 pM of the radioligand ([^125I]orexin A, 2100 Ci/mmole, 50 μl), and with various concentrations of compounds of the invention (50 μl) in triplicates; non-specific binding was determined in the presence of Orexin A (1 μM). Reactions were terminated by vacuum filtration, 3 washes of ice cold wash buffer (Tris-HCl pH 7.4/10 mM, with NaCl 154 mM).

Test [4] concerns the target T2, hOx2R. Nature of the test: Radioligand binding assay, [125I]orexin A, hOx2R. The following applies: radioligand [125I]orexin A, competition. The protocol: as §2, §3, §4
Test [5] relates to C75/Bl6 mice. Nature of the test: Beam Braking Motor Activity Behavior (BBM). The test is classed as in vivo. Conditions: 100 mg/kg p.o.; for BBM: induced inactivity vs controls: in the first 3 hours. The protocol: Beam Braking Motor Activity Behavior (BBM)
In the morning (9:00 h) of experimental day 1, the animals (C75/Bl6 mice; Janvier, France) are singly placed into home cages (Type 3, only containing sawdust, as well as food and water ad libitum). The cages are put into frames equipped with infrared beams to record the activity/inactivity of the mice (Moti 4.25, TSE Systems, Germany). The first 1.5 days are used for habituation (see Figure). Five minutes before lights-off of the second day, the animals (n=6/groups) are orally treated with vehicle, the compounds or a positive control (e.g. almorexant 100 mg/kg). Then, the animals stay in the setups for the following lights-off period and activity monitored.
The data are expressed as means±SEM (standard error of the means) of these difference scores for each hour as well as for the first four hours after administration, the time period which is most sensible to the effects of sleep-promoting compounds. Statistical analysis of the data is done with Systat 11 software. Since the data are normally distributed, analysis of variance (ANOVA) with treatment as between subject factor and the Dunnett test for post-hoc pairwise comparison were used. Furthermore, Student t-tests are used for single pair wise comparisons.

Test [6] deals with C75/Bl6 mice. Put plainly: Sleep Electroencephalography (Sleep EEG). The test is classed as in vivo. Conditions: 100 mg/kg p.o. The method, then:
Sleep Electroencephalography (Sleep EEG):
The sleep pattern of tethered mice (C75/Bl6 mice; Janvier, France), chronically implanted with cortical EEG electrodes and an EMG electrode (neck muscle), is scored using the rodent scoring module of Somnologica software. Activity is monitored with an infrared sensor placed in the top of the cage and video recordings are collected with a day/night camera and infrared light during the dark phase (12 hours, lights off at 15:00). Mice are repeatedly acclimated to the recording setup and for a minimum of 3 days before each experiment. All treatments occur 5-10 min before lights off. On Day 1 mice are handled and the oral gavage introduced without application, on Day 2 vehicle is applied, on Day 3 compound is applied, and on Day 4 vehicle is applied. 22 hour recordings are scored in 10 s epochs and the total minutes per hour in Active wake (wake with locomotion), Quiet wake, and sleep are determined. Significance (p<0.05) is tested between vehicle and compound with Systat12 using the Restricted Maximum Likelihood test followed by post-hoc analysis using Fisher's Least Significant Differences test when either treatment or the interaction between treatment and hour had p<0.05.

T1 sequence (O43613 whole entry): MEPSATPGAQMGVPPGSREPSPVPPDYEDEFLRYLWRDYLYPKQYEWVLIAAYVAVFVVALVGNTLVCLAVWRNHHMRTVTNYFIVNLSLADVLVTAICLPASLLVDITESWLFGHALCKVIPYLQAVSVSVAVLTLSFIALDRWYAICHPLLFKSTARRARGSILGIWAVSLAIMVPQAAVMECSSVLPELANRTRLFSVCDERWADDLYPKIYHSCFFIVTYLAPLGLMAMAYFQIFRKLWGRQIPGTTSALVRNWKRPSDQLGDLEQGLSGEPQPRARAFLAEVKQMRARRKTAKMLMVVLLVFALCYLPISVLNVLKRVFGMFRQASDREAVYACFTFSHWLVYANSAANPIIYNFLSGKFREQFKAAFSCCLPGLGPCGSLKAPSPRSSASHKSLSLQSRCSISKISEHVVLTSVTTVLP
T2 sequence (O43614 whole entry): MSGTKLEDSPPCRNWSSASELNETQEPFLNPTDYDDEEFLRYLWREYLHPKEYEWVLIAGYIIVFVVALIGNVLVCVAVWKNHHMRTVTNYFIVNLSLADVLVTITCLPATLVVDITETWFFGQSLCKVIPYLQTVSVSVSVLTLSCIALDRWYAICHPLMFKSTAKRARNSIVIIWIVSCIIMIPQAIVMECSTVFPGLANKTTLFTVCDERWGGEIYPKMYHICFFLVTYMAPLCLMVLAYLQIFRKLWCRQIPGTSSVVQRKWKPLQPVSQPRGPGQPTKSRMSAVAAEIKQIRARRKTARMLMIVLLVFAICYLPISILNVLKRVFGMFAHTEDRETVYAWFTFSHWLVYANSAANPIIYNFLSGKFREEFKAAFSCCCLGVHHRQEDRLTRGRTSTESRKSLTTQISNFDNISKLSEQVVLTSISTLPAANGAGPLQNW

On to `O=C1N(Cc2cccc(-c3ccccc3)c2)CCCC12CCN(c1cnc3ccccc3n1)CC2` [Example 22, 2-(biphenyl-3-ylmethyl)-9-(quinoxalin-2-yl)-2,9-diazaspiro[5.5]undecan-1-one], for which the Ki was determined as 518 nM at hOx1R [1] and 51 nM on hOx2R [2]. In addition, the Kd stood at 1320 nM at hOx1R [3] and 59 nM on hOx2R [4].
As to `O=C1CCCC2(CCN(c3cnc4ccccc4n3)CC2)N1Cc1cccc2[nH]ccc12` [Example 38, 1-((1H-indol-4-yl)methyl)-9-(Quinoxalin-2-yl)-1,9-diazaspiro[5.5]undecan-2-one], the values for the Ki on hOx1R [1] and on hOx2R [2] were 13 nM and 1 nM, respectively. Besides, the Kd on hOx1R [3] came to 17 nM; on hOx2R [4], 7 nM.
On the same counts, the results for `O=C1N(Cc2cccc3c2OCCO3)CCCC12CCN(c1cnc3ccccc3n1)CC2` [Example 4, 2-((2,3-dihydrobenzo[b][1,4]dioxin-5-yl)methyl)-9-(quinoxalin-2-yl)-2,9-diazaspiro[5.5]undecan-1-one] are 1360 nM, 46 nM, 2060 nM and 121 nM.
Turning to `O=C1N(Cc2cccc3c2OCO3)CCCC12CCN(c1cnc3ccccc3n1)CC2` [Example 9, 2-(benzo[d][1,3]dioxol-4-ylmethyl)-9-(quinoxalin-2-yl)-2,9-diazaspiro[5.5]undecan-1-one], the Ki on hOx1R [1] amounted to 904 nM; at hOx2R [2], 35 nM. Moreover, the Kd on hOx1R [3] came to 2350 nM; at hOx2R [4], 413 nM.
As to `CNC(=O)[C@@H](c1ccccc1)N1CCc2cc(OC)c(OC)cc2[C@@H]1CCc1ccc(C(F)(F)F)cc1` [almorexant, reference compound], in the test on C75/Bl6 mice [5], the “BBM: duration of induced inactivity” value was in the range of 5 to 7 h and the “BBM: induced inactivity vs controls” value is reported as 18-21 minutes/hour. Moreover, in the test on C75/Bl6 mice [6], the “Sleep EEG: duration of reduced active wake and increased sleep” value was in the range of 5 to 6 h; the “Sleep EEG: effect on quiet wake” value is given as “without noticeable effect”; the “Sleep EEG: reduction of active wake and increase of sleep vs controls” value was 9-16 minutes/hour.
Turning to `O=C1CCCC2(CCN(c3nc4cc(Cl)ccc4o3)CC2)N1Cc1cccc2[nH]ccc12` [Example 136, 1-((1H-indol-4-yl)methyl)-9-(5-chlorobenzo[d]oxazol-2-yl)-1,9-diazaspiro[5.5]undecan-2-one], the Ki at hOx1R [1] was determined as 657 nM; at hOx2R [2] it was 11 nM. In addition, the Kd at hOx1R [3] was determined as 1410 nM; on hOx2R [4] it was 96 nM.
On the same counts, the results for `O=C1N(Cc2ccccc2)CCCC12CCN(c1cnc3ccccc3n1)CC2` [Example 6, 2-benzyl-9-(quinoxalin-2-yl)-2,9-diazaspiro[5.5]undecan-1-one] are 1480 nM, 371 nM, 1310 nM and 300 nM.
Take `O=C1N(Cc2cccc3cccnc23)CCCC12CCN(c1cnc3ccccc3n1)CC2` [Example 21, 2-(quinolin-8-ylmethyl)-9-(quinoxalin-2-yl)-2,9-diazaspiro[5.5]undecan-1-one]: the Ki at hOx1R [1] was 1760 nM; on hOx2R [2] it was 213 nM. The Kd at hOx1R [3] turned out to be 3280 nM; at hOx2R [4] it was 211 nM.
On the same counts, the results for `Cc1onc(-c2ccccc2)c1CN1CCCC2(CCN(c3cnc4ccccc4n3)CC2)C1=O` [Example 34, 2-((5-methyl-3-phenylisoxazol-4-yl)methyl)-9-(quinoxalin-2-yl)-2,9-diazaspiro[5.5]undecan-1-one] are 1560 nM, 88 nM, 4320 nM and 181 nM.
In the same order, the values of `Cc1cccc(CN2CCCC3(CCN(c4cnc5ccccc5n4)CC3)C2=O)c1` [Example 15, 2-(3-methylbenzyl)-9-(quinoxalin-2-yl)-2,9-diazaspiro[5.5]undecan-1-one] are 1380 nM, 155 nM, 1400 nM and 288 nM.
With `O=C1N(Cc2ccccc2)CCCC12CCN(c1nc3ccccc3[nH]1)CC2` [Example 10, 9-(1H-benzo[d]imidazol-2-yl)-2-benzyl-2,9-diazaspiro[5.5]undecan-1-one], at hOx1R [1] (measured at a concentration of 10 μM of compound), the inhibition at 10 µM is 0%. For the same compound, on hOx2R [2], the inhibitory constant (Ki) amounted to 1070 nM. The results for the Kd at hOx1R [3] and at hOx2R [4] were 3360 nM and 439 nM, respectively.
With `O=C1N(Cc2cccc3[nH]ccc23)CCCC12CCN(c1cnc3ccccc3n1)CC2` [Example 3, 2-((1H-indol-4-yl)methyl)-9-(quinoxalin-2-yl)-2,9-diazaspiro[5.5]undecan-1-one], the Ki on hOx1R [1] amounted to 474 nM; at hOx2R [2], 63 nM. Also, the values for the Kd at hOx1R [3] and at hOx2R [4] were 630 nM and 130 nM, respectively.
On to `O=C1N(Cc2c[nH]c3ccccc23)CCCC12CCN(c1cnc3ccccc3n1)CC2` [Example 1, 2-((1H-indol-3-yl)methyl)-9-(quinoxalin-2-yl)-2,9-diazaspiro[5.5]undecan-1-one], for which the inhibition constant (Ki) at hOx1R [1] came to 314 nM. Besides, the Ki at hOx2R [2] amounted to 30 nM. The compound also had a Kd on hOx1R [3] of 374 nM. The same compound had a Kd on hOx2R [4] of 42 nM. Also, in the test with C75/Bl6 mice [5], the “BBM: duration of induced inactivity” value was in the range of 6 to 7 h and the “BBM: induced inactivity vs controls” value is on record as 15-22 minutes/hour. In addition, in the test on C75/Bl6 mice [6], the “Sleep EEG: duration of reduced active wake and increased sleep” value is reported as “up to 7 hours”; the “Sleep EEG: effect on quiet wake” value is reported as “minimal effects”; the “Sleep EEG: reduction of active wake and increase of sleep vs controls” value is 7-16 minutes/hour.
Take `O=C1N(Cc2c[nH]c3ncccc23)CCCC12CCN(c1cnc3ccccc3n1)CC2` [Example 57, 2-((1H-pyrrolo[2,3-b]pyridin-3-yl)methyl)-9-(quinoxalin-2-yl)-2,9-diazaspiro[5.5]undecan-1-one]: the Ki at hOx1R [1] amounted to 1030 nM; on hOx2R [2], 92 nM. Also, the values for the Kd on hOx1R [3] and at hOx2R [4] were 959 nM and 159 nM, respectively.
